Results reported in ChEMBL document CHEMBL3751783, “Straightforward and effective synthesis of γ-aminobutyric acid transporter subtype 2-selective acyl-substituted azaspiro[4.5]decanes” (Bioorg Med Chem Lett, 2016).

Assays:
Format in all cases: cell-based
[1] = molecular target: Sodium- and chloride-dependent GABA transporter 1 (Mus musculus, UniProt P31648); assay: Inhibition of mouse GAT1 mediated [3]GABA uptake expressed in HEK293 cells after 3 mins by scintillation counting
[2] = molecular target: T1, GABA transporter 2 (Mus musculus, UniProt P31651); assay: Inhibition of mouse BGT1 mediated [3]GABA uptake expressed in HEK293 cells after 3 mins by scintillation counting
T1 sequence (P31651 whole entry): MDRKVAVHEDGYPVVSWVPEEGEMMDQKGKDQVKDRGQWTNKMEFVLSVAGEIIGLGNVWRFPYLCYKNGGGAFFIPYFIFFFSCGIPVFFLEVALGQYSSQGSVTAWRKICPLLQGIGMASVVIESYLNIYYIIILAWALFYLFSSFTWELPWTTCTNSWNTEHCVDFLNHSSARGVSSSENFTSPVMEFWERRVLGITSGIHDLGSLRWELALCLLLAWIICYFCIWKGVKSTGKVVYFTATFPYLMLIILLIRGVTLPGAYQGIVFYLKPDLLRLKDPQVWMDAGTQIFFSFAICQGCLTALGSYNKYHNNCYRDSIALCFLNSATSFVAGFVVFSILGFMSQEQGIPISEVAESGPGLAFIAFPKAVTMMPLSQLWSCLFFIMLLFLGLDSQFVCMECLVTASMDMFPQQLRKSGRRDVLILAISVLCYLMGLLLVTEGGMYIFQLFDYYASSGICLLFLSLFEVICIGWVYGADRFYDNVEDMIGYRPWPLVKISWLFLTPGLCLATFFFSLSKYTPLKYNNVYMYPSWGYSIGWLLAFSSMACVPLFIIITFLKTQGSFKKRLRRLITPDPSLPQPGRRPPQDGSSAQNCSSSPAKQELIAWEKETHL

[3] = molecular target: T2, GABA transporter 3 (Mus musculus, UniProt P31649); assay: Inhibition of mouse GAT2 mediated [3]GABA uptake expressed in HEK293 cells after 3 mins by scintillation counting
T2 sequence (P31649 whole entry): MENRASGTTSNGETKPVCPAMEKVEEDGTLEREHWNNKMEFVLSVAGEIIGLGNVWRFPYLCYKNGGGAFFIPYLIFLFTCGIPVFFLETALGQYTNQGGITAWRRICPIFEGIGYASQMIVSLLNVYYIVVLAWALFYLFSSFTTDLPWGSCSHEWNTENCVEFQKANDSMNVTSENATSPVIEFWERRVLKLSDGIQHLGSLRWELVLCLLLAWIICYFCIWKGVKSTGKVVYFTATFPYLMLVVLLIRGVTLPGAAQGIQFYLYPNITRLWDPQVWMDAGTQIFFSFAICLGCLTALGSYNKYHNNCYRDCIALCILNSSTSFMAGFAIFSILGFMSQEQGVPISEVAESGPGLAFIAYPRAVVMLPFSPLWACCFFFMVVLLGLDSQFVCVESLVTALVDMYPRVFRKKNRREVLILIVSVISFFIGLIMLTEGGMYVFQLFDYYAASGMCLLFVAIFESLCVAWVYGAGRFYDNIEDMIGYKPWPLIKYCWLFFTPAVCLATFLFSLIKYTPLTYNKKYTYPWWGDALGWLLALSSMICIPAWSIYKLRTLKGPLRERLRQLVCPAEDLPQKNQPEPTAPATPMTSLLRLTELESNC

SMILES	IC50 [1] [µM]	IC50 [2] [µM]	IC50 [3] [µM]
O=C(CBr)N1C(=O)CCC12CCCCC2=O (stereo not given)	> 1000	> 1000	> 1000
O=C(CCl)N1C(=O)CCC12CCCCC2	> 1000	> 1000	> 1000
C1CCC2(CC1)CCCN2	> 5000	> 5000	> 5000
O=C(CBr)N1C(=O)CCC12CCCCC2	371	103	> 1000
O=C1CCC2(CCCC23OCCO3)N1 (stereo not given)	> 1000	> 1000	> 1000
C=CCN1C(=O)CCC12CCCC21OCCO1 (stereo not given)	> 1000	> 1000	> 1000
O=C(CCN1CCNCC1)N1C(=O)CCC12CCCCC2	> 1000	> 1000	> 1000
C=CC(=O)N1C(=O)CCC12CCCCC2	371	103	> 1000
CCN(CC)CCC(=O)N1CCCC12CCCCC2	> 1000	> 1000	> 1000
C=CC(=O)N1CCCC12CCCCC2	> 5000	> 5000	3020
C=CC(=O)N1C(=O)C=CC12CCCC21OCCO1 (stereo not given)	> 1000	> 1000	> 1000
O=C(CCN1CCCCC1)N1C(=O)CCC12CCCCC2	> 1000	> 1000	> 1000
O=C(O)C1=CCCNC1 [GUVACINE]	20.9	> 1000	72.4
CCOC(=O)C1CCCN(CCC(=O)N2CCCC23CCCCC3)C1 (stereo not given)	> 5000	> 5000	2330
O=C1C=CC2(CCCC23OCCO3)N1C(=O)CCN1CCNCC1 (stereo not given)	> 1000	> 1000	> 1000
CCN(CC)CCC(=O)N1C(=O)CCC12CCCCC2	> 1000	> 1000	> 1000
COc1ccc(C(OCCN2CCC[C@H](C(=O)O)C2)(c2ccc(OC)cc2)c2ccc(OC)cc2)cc1	–	> 1000	–

SMILES	IC50 [1] [µM]	IC50 [2] [µM]	IC50 [3] [µM]
CCOC(=O)C1CCCN(CCC(=O)N2C(=O)CCC23CCCCC3)C1 (stereo not given)	> 1000	164	> 1000
O=C(CCN1CCCC1)N1C(=O)CCC12CCCCC2	> 1000	> 1000	> 1000
O=C(CI)N1C(=O)CCC12CCCCC2	> 1000	> 1000	> 1000
C=CC(=O)N1C(=O)CCC12CCCCC2=O (stereo not given)	> 1000	> 1000	> 1000
O=C(CBr)N1CCCC12CCCCC2	233	> 5000	> 5000
O=C(CCN1CCOCC1)N1C(=O)CCC12CCCCC2	> 1000	> 1000	> 1000
[N-]=[N+]=NCC(=O)N1C(=O)CCC12CCCCC2	> 1000	> 1000	> 1000
O=C1C=CC2(CCCC23OCCO3)N1C(=O)CCN1CCOCC1 (stereo not given)	> 1000	> 1000	> 1000
O=C(CCN1CCNCC1)N1CCCC12CCCCC2	> 1000	> 1000	> 1000
O=C(CCN1CCCCC1)N1CCCC12CCCCC2	> 5000	> 5000	> 5000
O=C1CCC2(CCCCC2=O)N1 (stereo not given)	> 1000	> 1000	> 1000
COC(=O)C1=CCCN(CCC(=O)N2CCCC23CCCCC3)C1	2050	2300	3230
O=C1CCC2(CCCCC2)N1	> 5000	> 5000	> 5000
O=C(CCN1CCCC1)N1CCCC12CCCCC2	> 5000	> 5000	> 5000
CCOC(=O)C1CCCN(CCC(=O)N2C(=O)C=CC23CCCC32OCCO2)C1 (stereo not given)	> 1000	> 1000	> 1000
O=C(O)C1=CCCN(CCON=C(c2ccccc2)c2ccccc2)C1	0.18	> 1000	> 1000
O=C(CCN1CCOCC1)N1CCCC12CCCCC2	> 5000	> 5000	> 5000
